The nature of series [1]: Lipophilicity, logD of compound at pH 7.4. The series is classed as physicochemical. To be noted: buffer.
Series [2] deals with Amyloid-beta precursor protein (Homo sapiens) (UniProt P05067). Put plainly: Inhibition of amyloid beta (unknown origin) aggregation at 10 uM incubated for 5 mins by thioflavin fluorescent based analysis relative to control.
Series [3] has as its target Acetylcholinesterase (Electrophorus electricus) (UniProt O42275). The series can be described thus: Inhibition of Electric eel AChE relative to control. To be noted: concentration not given here.
Series [4] has as its target Cholinesterase (Equus caballus) (UniProt P81908). The series can be described thus: Inhibition of equine serum BuChE.
Series [5] has the same target. The series can be described thus: Inhibition of equine serum BuChE at 10 uM by Ellman's method relative to control.
The target of a further series is Cholinesterase (Equus caballus, UniProt P81908). Put plainly: Inhibition of equine serum BuChE by Ellman's method. Background: In Ellman's method for cholinesterases, released thiocholine reacts with DTNB.
Sequence of Cholinesterase (P81908 whole entry): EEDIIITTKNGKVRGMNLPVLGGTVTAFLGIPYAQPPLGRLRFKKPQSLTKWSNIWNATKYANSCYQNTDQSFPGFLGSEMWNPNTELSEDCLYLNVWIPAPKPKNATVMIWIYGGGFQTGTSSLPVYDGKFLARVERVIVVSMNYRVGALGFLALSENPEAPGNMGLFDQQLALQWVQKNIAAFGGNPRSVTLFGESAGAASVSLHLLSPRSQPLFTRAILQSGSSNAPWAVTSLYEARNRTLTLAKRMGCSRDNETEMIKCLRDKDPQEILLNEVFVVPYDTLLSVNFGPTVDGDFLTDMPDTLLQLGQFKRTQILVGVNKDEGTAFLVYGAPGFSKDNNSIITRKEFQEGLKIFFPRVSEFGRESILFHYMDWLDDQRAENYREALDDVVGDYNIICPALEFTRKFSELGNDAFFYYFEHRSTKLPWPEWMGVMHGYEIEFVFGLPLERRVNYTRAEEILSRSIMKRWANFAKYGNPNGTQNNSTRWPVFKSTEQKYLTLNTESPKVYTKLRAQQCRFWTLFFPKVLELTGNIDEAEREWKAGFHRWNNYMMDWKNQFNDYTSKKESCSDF
Series [6] in a line: Lipophilicity, logP of compound. To be noted: octanol/water. The series is classed as physicochemical.

Here are results for 22 compounds from ChEMBL document CHEMBL5380880, “Novel drug-like fluorenyl derivatives as selective butyrylcholinesterase and β-amyloid inhibitors for the treatment of Alzheimer's disease” (Bioorg Med Chem, 2023).

SMILES strings stand for the structures. Calls of active or inactive are those of the source. No cut-off for these calls is given here. Where only a bound is given, the exact number is not on record here.

Sequence of Amyloid-beta precursor protein (Homo sapiens) (P05067 whole entry): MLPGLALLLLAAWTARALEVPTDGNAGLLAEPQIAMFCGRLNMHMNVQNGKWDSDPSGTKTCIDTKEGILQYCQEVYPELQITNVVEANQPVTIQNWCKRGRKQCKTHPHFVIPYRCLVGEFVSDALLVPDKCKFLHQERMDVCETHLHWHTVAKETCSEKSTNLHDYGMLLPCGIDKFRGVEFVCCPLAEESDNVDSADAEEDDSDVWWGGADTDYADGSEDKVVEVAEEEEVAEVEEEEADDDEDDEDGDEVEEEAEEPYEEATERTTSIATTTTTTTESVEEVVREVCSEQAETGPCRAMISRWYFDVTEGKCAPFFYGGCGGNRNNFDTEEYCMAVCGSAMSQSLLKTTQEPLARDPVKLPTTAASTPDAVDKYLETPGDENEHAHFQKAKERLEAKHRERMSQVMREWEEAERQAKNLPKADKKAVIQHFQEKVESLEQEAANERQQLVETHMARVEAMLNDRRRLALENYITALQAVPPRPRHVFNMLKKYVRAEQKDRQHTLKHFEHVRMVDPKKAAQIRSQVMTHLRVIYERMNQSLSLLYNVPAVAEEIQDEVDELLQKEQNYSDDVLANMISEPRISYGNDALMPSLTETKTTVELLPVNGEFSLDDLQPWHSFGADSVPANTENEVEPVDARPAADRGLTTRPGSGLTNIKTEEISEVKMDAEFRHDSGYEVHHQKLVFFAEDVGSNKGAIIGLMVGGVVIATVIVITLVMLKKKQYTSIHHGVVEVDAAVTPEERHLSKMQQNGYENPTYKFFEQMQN
Sequence of Cholinesterase (Equus caballus) (P81908 whole entry): as the sequence (P81908 whole entry) above
Sequence of Acetylcholinesterase (Electrophorus electricus) (O42275 24-633 limits assumed): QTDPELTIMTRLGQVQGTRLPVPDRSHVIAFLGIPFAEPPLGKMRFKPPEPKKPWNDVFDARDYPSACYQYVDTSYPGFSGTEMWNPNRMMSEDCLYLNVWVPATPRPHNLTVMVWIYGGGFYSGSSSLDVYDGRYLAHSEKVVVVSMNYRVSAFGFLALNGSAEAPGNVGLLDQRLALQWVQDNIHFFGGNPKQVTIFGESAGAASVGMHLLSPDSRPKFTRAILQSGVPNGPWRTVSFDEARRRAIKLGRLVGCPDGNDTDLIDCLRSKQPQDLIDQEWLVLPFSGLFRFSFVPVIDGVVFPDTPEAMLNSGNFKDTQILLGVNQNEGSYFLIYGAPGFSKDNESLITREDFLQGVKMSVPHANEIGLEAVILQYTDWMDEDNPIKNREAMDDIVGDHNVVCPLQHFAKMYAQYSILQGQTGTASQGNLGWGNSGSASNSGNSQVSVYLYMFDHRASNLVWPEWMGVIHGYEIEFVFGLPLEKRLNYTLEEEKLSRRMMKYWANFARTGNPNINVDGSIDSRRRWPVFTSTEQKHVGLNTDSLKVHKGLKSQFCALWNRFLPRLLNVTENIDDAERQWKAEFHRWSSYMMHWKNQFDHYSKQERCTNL

By logD is commonly meant lipophilicity at a set pH, counting ionised and neutral species. A high value points to a more lipophilic compound. For orientation: inhibition means how much of the control response was suppressed. Compound `O=C(CC1c2ccccc2-c2ccccc21)NCC(O)CNCC1CC1` (racemic) yielded a log distribution coefficient (logD) in series [1] of -0.1. Moreover, the figures for the inhibition in series [2], in series [3] and in series [5] were 4.6%, above 20% and 44.5%, respectively. In addition, the inhibition result in series [4] is “inactive”.

The term IC50 denotes the concentration that gives 50% inhibition. At Cholinesterase, `O=C(NC[C@@H](O)CNCC1CCCCCC1)C1c2ccccc2-c2ccccc21` came in with a half-maximal inhibitory concentration (IC50) of 31 nM. This compound also registered an inhibition in series [2] of 4.6%.

`O=C(NCC(O)CNCC1CCCCC1)C1c2ccccc2-c2ccccc21` (racemic) displayed a concentration for half-maximal inhibition (IC50) on Cholinesterase of 231 nM. The logD in series [1] amounted to 0.91. Moreover, in series [2], the inhibition came out at 4.6%.

Regarding `O=C(NCC(O)CNCc1ccccc1)C1c2ccccc2-c2ccccc21` (racemic), the concentration for half-maximal inhibition (IC50) against Cholinesterase came to 627 nM. This compound also showed a pH-dependent lipophilicity (logD) in series [1] of 1.78. This compound also showed an inhibition in series [2] of 4.6%.

In the case of `O=C(NCC(O)CNCCC1CCCCC1)C1c2ccccc2-c2ccccc21` (racemic), inhibition against Cholinesterase was half-maximal at 475 nM (IC50). For the same compound, the logD in series [1] is 1.41. Further, the inhibition in series [2] worked out at 60.7%.

`O=C(CC1c2ccccc2-c2ccccc21)NCC(O)CNCc1ccccc1` (racemic) came in with a half-inhibitory concentration (IC50) at Cholinesterase of 4330 nM. The compound also displayed a logD in series [1] of 1.88. The compound also registered an inhibition in series [2] of 4.6%.

`O=C(CC1c2ccccc2-c2ccccc21)NCC(O)CNCC1CCCC1` (racemic): the IC50 on Cholinesterase turned out to be 1710 nM. Moreover, the logD in series [1] amounted to 0.66. The compound also gave an inhibition in series [2] of 4.6%.

`CC(C)(C)CNCC(O)CNC(=O)C1c2ccccc2-c2ccccc21` (racemic) yielded an IC50 on Cholinesterase of 385 nM. In addition, the logD in series [1] is 0.54. In series [2], the inhibition is 4.6%.

The compound `O=C(NCC(O)CNCC1CCCC1)C1c2ccccc2-c2ccccc21` (racemic) gave an IC50 at Cholinesterase of 379 nM. The compound further returned a log distribution coefficient (logD) in series [1] of 0.47. In addition, the inhibition in series [2] turned out to be 4.6%.

On to `O=C(CC1c2ccccc2-c2ccccc21)NCC(O)CNCC1CCCCCC1` (racemic), for which the half-inhibitory concentration (IC50) against Cholinesterase is 1090 nM. In series [1], this compound showed a logD of 1.55. Besides, the inhibition in series [2] was found to be 4.6%.

`O=C(NCC(O)CNCC1CCCCCC1)C1c2ccccc2-c2ccccc21` (racemic) displayed an IC50 on Cholinesterase of 38 nM. In addition, the pH-dependent lipophilicity (logD) in series [1] was 1.36. In addition, the inhibition in series [2] is 4.6%.

With `O=C(NCC(O)CNCC1CC1)C1c2ccccc2-c2ccccc21` (racemic), the half-inhibitory concentration (IC50) on Cholinesterase worked out at 435 nM. Further, the logD in series [1] is -0.29. For the same compound, the inhibition in series [2] is 4.6%.

With `O=C(CC1c2ccccc2-c2ccccc21)NCC(O)CNCCC1CCCCC1` (racemic), at Cholinesterase, half-maximal inhibition (IC50) was put at 422 nM. The logD in series [1] came out at 1.6. In series [2], the inhibition stood at 4.6%.

A word on the logP: it is a log measure of how a compound divides between an organic and an aqueous phase. Compound `CC(C)(C)c1cccc(CNCC(O)CNCCC(c2ccccc2)c2ccccc2)c1` (centres undefined) showed a logD in series [1] of 3.7. In series [2], this compound came in with an inhibition of 4.6%. The compound further had a log partition coefficient (logP) in series [6] of 5.96.

At Cholinesterase, `O=C(NCC(O)CNC1CCCCC1)C1c2ccccc2-c2ccccc21` (racemic) displayed a half-maximal inhibitory concentration (IC50) of 336 nM. This compound yielded a logD in series [1] of 0.6. In addition, the inhibition in series [2] turned out to be 4.6%.

The compound `O=C(NC[C@H](O)CNCC1CCCCCC1)C1c2ccccc2-c2ccccc21` registered a half-inhibitory concentration (IC50) at Cholinesterase of 288 nM. This compound also returned an inhibition in series [2] of 4.6%.

In the case of `O=C(NCC(O)CNCC(F)(F)F)C1c2ccccc2-c2ccccc21` (racemic), inhibition against Cholinesterase was half-maximal at 12900 nM (IC50). The same compound gave a logD in series [1] of 2.33. Further, the inhibition in series [2] came out at 67.6%.

`O=C(CC1c2ccccc2-c2ccccc21)NCC(O)CNC1CCCCC1` (racemic): the IC50 on Cholinesterase came out at 1490 nM. The compound further returned a logD in series [1] of 0.79. This compound yielded an inhibition in series [2] of 4.6%.

In the case of `O=C(CC(c1ccccc1)c1ccccc1)NCC(O)CNCC1CCCCC1` (centres undefined), 78 nM corresponded to half-maximal inhibition on Cholinesterase (IC50). Further, the logD in series [1] was 1.43. For the same compound, the inhibition in series [2] worked out at 4.6%.

Regarding `O=C(CC1c2ccccc2-c2ccccc21)NCC(O)CNCC1CCCCC1` (racemic), at Cholinesterase, the half-inhibitory concentration (IC50) was determined as 1690 nM. Also, the pH-dependent lipophilicity (logD) in series [1] was 1.1. The compound also gave an inhibition in series [2] of 4.6%.

The compound `Nc1c2c(nc3ccccc13)CCCC2` displayed an inhibition in series [2] of 4.6%.

`CC(C)(C)CNCC(O)CNC(=O)CC1c2ccccc2-c2ccccc21` (racemic) yielded a half-inhibitory concentration (IC50) at Cholinesterase of 672 nM. For the same compound, the log distribution coefficient (logD) in series [1] stood at 0.73. Moreover, the inhibition in series [2] worked out at 4.6%.
